Where two headings read alike, the source gives them in different places.
Experiments:
[1] = Short-term plasma stability with and without esterase inhibitors; conditions: 3 h, 37 °C; for Parent Compound Remaining (%), Esterase Inhibitors: pH 7.4, BNPP and PMSF 500 µM each; for Parent Compound Remaining (%), No Esterase Inhibitors: pH 7.4, pooled human plasma
Protocol: The pooled plasma used for both plasma stability and plasma binding studies originated from 50 donors, collected as whole blood from donors in the United States at an FDA-approved collection center, processed into plasma by centrifugation and immediately frozen (Innovative Research; Novi, MI, USA) and purchased from Patricell (Nottingham, UK). […] Stock solutions were prepared in DMSO. […] For incubations without inhibitor an equivalent volume of DMSO was included. Plasma mixture was pre-incubated at 37 °C for 5 min. Test compounds (5 µM) and procaine (positive control, 50 µM) were added to pre-warmed plasma mixture containing inhibitors. Incubation volume was 1 mL. Samples were mixed and 80 µL was immediately sampled and quenched into 200 µL ACN spiked with donepezil (internal standard (IS), 50 ng mL^−1). […] Peak area ratio of analyte to IS was used to determine half-lives of test compounds in plasma, both with and without the presence of esterase inhibitors.
The human plasma used was pooled from 50 donors, and was collected as whole blood from donors in
the United States at an FDA-approved collection center, processed into plasma by centrifugation and
The stability of the tested SCRAs, select metabolites and procaine control in pooled human plasma over
inhibitors bis(4-nitrophenyl) phosphate (BNPP) and phenyl methyl sulphonyl fluoride (PMSF) is

[2] = Plasma protein binding by equilibrium dialysis; format: in vitro ADME, human; conditions: 37 °C; for PPB (%) / Fraction Unbound (fu): equilibrium dialysis 5 h; for fraction unbound at 5 h, 10 µg mL^−1: human, pooled human plasma, pH 7.4, equilibrium dialysis 5 h
Protocol: Plasma protein binding was assessed by equilibrium dialysis in a 96-well dialysis block (HTDialysis, Ledyard, CT, USA). Dialysis membranes (12–14 kDa) were soaked in deionised water for at least 60 min. Membranes were soaked overnight at 4 °C in ethanol:water 20:80% v/v and then rinsed with deionised water immediately prior to use. […] Spiked plasma (150 µL) was dialysed against isotonic phosphate buffer (pH 7.4) (150 µL) for 5 h at 37 °C with shaking at 100 rpm. Thermal degradation controls for each test compound were kept at 37 °C and 4 °C. Blank control plasma and buffer were included in the incubation. Following incubation, dialysed plasma samples and thermal degradation controls (50 µL) were added to drug-free buffer (50 µL), and dialysed buffer samples (50 µL) were added to drug-free plasma (50 µL). […] Supernatant (150 µL) was added to 50 µL deionised water and samples were analysed by UPLC-MS/MS as described above. Dialysed buffer from each well was tested for protein contamination using BCA protein assay reagent to determine whether membranes had been compromised.
Bu = Analyte/IS ratio determined in buffer side (2) Fraction unbound, fu=(100−% bound)/100

[3] = tested on: pooled human cryopreserved hepatocytes (pHHeps); assay: Metabolic stability, pooled human cryopreserved hepatocyte incubations; conditions: for Predicted In Vivo Hepatic Clearance, CLH: from pHHeps CLint, well-stirred model with plasma fu, Q 21 mL min^−1 kg^−1; for T1/2: pHHeps 0.25 million cells mL^−1, 0.5 µM, 37 °C, n ≥ 3 ± SD; for Intrinsic clearance, CLint: alternative hepatocyte cell density 99x10^6 hepatocytes per gram liver
[4] = Metabolic stability, pooled human liver microsome incubations; conditions: for Predicted In Vivo Hepatic Clearance, CLH: from pHLM CLint, well-stirred model with plasma fu, Q 21 mL min^−1 kg^−1; for T1/2: pHLM 0.5 mg mL^−1, 0.5 µM, NADPH, 37 °C; for T1/2 / Microsomal Intrinsic Clearance, CLint micr: n ≥ 3 ± SD
Protocol: Total incubation volume was 500 µL. Procedure: Test compound working solutions (50 µM in potassium phosphate buffer (pH 7.4)) were prepared (<1% DMSO). pHLM were thawed and diluted in potassium phosphate buffer (pH 7.4). […] Reactions were quenched in 200 µL ACN spiked with donepezil (IS, 50 ng mL^−1). […] Samples were analysed by UPLC-MS/MS in a 96 deep-well 2 mL plate. Each SCRA was incubated at least in triplicate but additional incubations were carried out across a number of analytical batches, giving greater replication and a greater understanding of system variability. Microsomal scaling factors used for human liver microsome incubations in the literature vary. Intrinsic clearance and predicted in vivo clearance rates calculated using alternative scaling factors found in the literature is provided in Section S6 of the supplementary information, to aid comparison of data between publications.
Equations used for in vitro intrinsic clearance calculation and human in vivo clearance […]
The equations used for in vitro intrinsic clearance calculation and human in vivo clearance estimation […]
Microsomal clearance (HLM incubations) in mL min-1 mg microsomal protein-1 [3]
Intrinsic clearance (whole-liver dimensions) (HLM incubations) in mL min-1 kg-1 [3] CL = k x V x [Liver](g) x SF Eqn. 7 […]
mg g microsomal protein-1 [7]
Intrinsic clearance (whole-liver dimensions) (HHep incubations) in mL min-1 kg-1 [4] CL = k x V x hepatocytes/g liver x [Liver](g) Eqn. 8 […]
Where: hepatocytes/g liver = 107x10^6 cells/g liver
Hepatic clearance in mL min-1 kg-1 [3]
[…] Eqn. 9
Where: Q = hepatic blood flow, 21 mL min-1 kg-1 [9]; fu = fraction unbound (plasma); CLint = […]
Estimated human hepatic extraction ratio [5]
Intrinsic clearance data – pooled human liver microsome incubations […]
table S4-28. Intrinsic clearance and predicted in vivo data calculated using alternative microsomal scaling factors found in the literature – 32 [10] and 45 [11] mg microsomal protein per gram liver – are provided in tables S29 and S30, respectively.

[5] = pHHeps, 99x10^6 hepatocytes per gram liver
[6] = pHLM, alternative microsomal scaling factor 32 mg microsomal protein per gram liver
[7] = pHLM, alternative microsomal scaling factor 45 mg microsomal protein per gram liver
[8] = pHLM, scaling factor 32 mg microsomal protein per gram liver
[9] = pHLM, scaling factor 45 mg microsomal protein per gram liver

Structure (SMILES) | Parent Compound Remaining (%), Esterase Inhibitors [1] [%] | Parent Compound Remaining (%), No Esterase Inhibitors [1] [%] | Predicted In Vivo Hepatic Clearance, CLH [3] [mL/min/kg] | Hepatic extraction ratio, EH ([3]; from pHHeps incubations) | T1/2 [3] [min] | Hepatic extraction ratio, EH [3, 5] | Predicted in vivo hepatic clearance, CLH [3, 5] [mL/min/kg] | % parent compound remaining, Average ([3]; pHHeps, 3 min) [%] | % parent compound remaining, Average ([3]; pHHeps, 6 min) [%] | % parent compound remaining, Average ([3]; pHHeps, 9 min) [%] | % parent compound remaining, Average ([3]; pHHeps, 15 min) [%] | % parent compound remaining, Average ([3]; pHHeps, 30 min) [%] | % parent compound remaining, Average ([3]; pHHeps, 45 min) [%] | % parent compound remaining, Average ([3]; pHHeps, 60 min) [%] | Intrinsic clearance, CLint ([3]; pHHeps) [mL/min/kg] | Predicted In Vivo Hepatic Clearance, CLH [4] [mL/min/kg] | Hepatic extraction ratio, EH ([4]; from pHLM incubations) | T1/2 [4] [min] | % parent compound remaining, Average ([4]; pHLM, 3 min) [%] | % parent compound remaining, Average ([4]; pHLM, 6 min) [%] | also measured
COC(=O)[C@H](NC(=O)c1cn(CCCCCF)c2ccccc12)C(C)(C)C [(R)-5F-MDMB-PICA (3), methyl 2-[1-(5-fluoropentyl)-1H-indole-3-carboxamido]-3,3-dimethylbutanoate] | 97.7 ± 5.6 | 103.2 ± 14.5 | 6.27 ± 0.74 | 0.30 ± 0.035 | 54 ± 9.4 | 0.28 ± 0.034 | 5.94 ± 0.72 | 87.4 | 85.8 | 88.6 | 78.8 | 64.9 | 51.8 | 43.7 | 134 ± 22.3 | 7.22 ± 0.05 | 0.34 ± 0.002 | 11 ± 0.11 | 72.6 | 62.5 | PPB (%) ([2]; 10 µg mL^−1): 93.8 ± 0.15%; Fraction Unbound (fu) ([2]; plasma): 0.062 ± 0.0015; % parent compound remaining, Average ([4]; pHLM, 9 min): 52.6%; % parent compound remaining, Average ([4]; pHLM, 15 min): 36.8%; % parent compound remaining, Average ([4]; pHLM, 30 min): 16.4%; Intrinsic clearance, CLint [4, 6]: 108 ± 1.13 mL/min/kg; Intrinsic clearance, CLint [4, 7]: 152 ± 1.59 mL/min/kg; Microsomal Intrinsic Clearance, CLint micr ([4]; pHLM): 0.132 ± 0.001 mL min^−1 mg Microsomal Protein^−1; Hepatic extraction ratio, EH [4, 8]: 0.24 ± 0.002; Predicted in vivo hepatic clearance, CLH [4, 8]: 5.09 ± 0.04 mL/min/kg; Hepatic extraction ratio, EH [4, 9]: 0.31 ± 0.002; Predicted in vivo hepatic clearance, CLH [4, 9]: 6.51 ± 0.05 mL/min/kg
COC(=O)[C@H](NC(=O)c1nn(CCCCCF)c2ccccc12)C(C)(C)C [(R)-5F-MDMB-PINACA (2), methyl 2-[1-(5-fluoropentyl)-1H-indazole-3-carboxamido]-3,3-dimethylbutanoate] | 100.1 ± 7.0 | 95.9 ± 6.7 | 8.16 ± 0.38 | 0.39 ± 0.018 | 23 ± 1.8 | 0.37 ± 0.018 | 7.78 ± 0.38 | 84.1 | 67.3 | 55.7 | 45.8 | 27.3 | 17.9 | 13.6 | 309 ± 23.6 | 6.52 ± 0.61 | 0.31 ± 0.029 | 8.0 ± 1.1 | 71.1 | 58.2 | fraction unbound at 5 h, 10 µg mL^−1 ([2]; 10 µg mL^−1, read-out: PPB (%) (converted)): 0.04; fraction unbound at 5 h, 10 µg mL^−1 ([2]; plasma, read-out: Fraction Unbound (fu)): 0.04 ± 0.0058; half-life ([3]; pHHep lot HUE50-N): 22.9 ± 1.8 min; half-life ([3]; pHHep lot HUE50-P): 6.5 ± 0.13 min; % parent compound remaining, Average ([4]; pHLM, 9 min): 44.4%; % parent compound remaining, Average ([4]; pHLM, 15 min): 28.9%; % parent compound remaining, Average ([4]; pHLM, 30 min): 8.7%; Intrinsic clearance, CLint [4, 6]: 145 mL/min/kg; Intrinsic clearance, CLint [4, 7]: 204 mL/min/kg; Microsomal Intrinsic Clearance, CLint micr ([4]; pHLM): 0.176 ± 0.024 mL min^−1 mg Microsomal Protein^−1; Hepatic extraction ratio, EH [4, 8]: 0.22 ± 0.023; Predicted in vivo hepatic clearance, CLH [4, 8]: 4.53 ± 0.48 mL/min/kg; Hepatic extraction ratio, EH [4, 9]: 0.28 ± 0.027; Predicted in vivo hepatic clearance, CLH [4, 9]: 5.85 ± 0.57 mL/min/kg
C=CCCCn1cc(C(=O)N[C@@H](C(=O)OC)C(C)(C)C)c2ccccc21 [(R)-MDMB-4en-PICA (12), methyl 3,3-dimethyl-2-[1-(pent-4-en-1-yl)-1H-indole-3-carboxamido]butanoate] | 87.7 ± 11.0 | 90.3 ± 5.4 | 6.42 ± 0.62 | 0.31 ± 0.029 | 44 ± 6.3 | 0.29 ± 0.028 | 6.08 ± 0.60 | 90.1 | 81.5 | 83.7 | 79.3 | 61.6 | 46.4 | 40.6 | 162 ± 22.16 | 9.81 ± 0.75 | 0.47 ± 0.036 | 5.4 ± 0.74 | 67.7 | 47.7 | PPB (%) ([2]; 10 µg mL^−1): 94.7 ± 1.11%; Fraction Unbound (fu) ([2]; plasma): 0.053 ± 0.0111; % parent compound remaining, Average ([4]; pHLM, 9 min): 31.7%; % parent compound remaining, Average ([4]; pHLM, 15 min): 13.8%; % parent compound remaining, Average ([4]; pHLM, 30 min): 1.7%; Intrinsic clearance, CLint [4, 6]: 213 mL/min/kg; Intrinsic clearance, CLint [4, 7]: 300 mL/min/kg; Microsomal Intrinsic Clearance, CLint micr ([4]; pHLM): 0.260 ± 0.040 mL min^−1 mg Microsomal Protein^−1; Hepatic extraction ratio, EH [4, 8]: 0.35 ± 0.033; Predicted in vivo hepatic clearance, CLH [4, 8]: 7.32 ± 0.70 mL/min/kg; Hepatic extraction ratio, EH [4, 9]: 0.43 ± 0.035; Predicted in vivo hepatic clearance, CLH [4, 9]: 9.01 ± 0.74 mL/min/kg

— PMC7961380, “A Systematic Study of the In Vitro Pharmacokinetics and Estimated Human In Vivo Clearance of Indole and Indazole-3-Carboxamide Synthetic Cannabinoid Receptor Agonists Detected on the Illicit Drug Market” (Molecules, 2021)
